Assay results published in publication PMC12615485, “New dengue virus inhibitors targeting NS3-NS5 interaction identified by in silico screening” (Frontiers in Microbiology, 2025).
Entries after “also recorded” stand apart in the source; their conditions may differ. Where two headings read alike, the source gives them in different places.

Columns and labels:
DENV-2 NGC strain = test: Plaque reduction assay (PRA) in Vero cells; assay type: cell-based; details: for EC50: PRA in Vero cells, read-out: Antiviral activity EC50; for SI (selectivity index): ratio between CC50 and EC50
[1] = molecular target: NS3-NS5 interaction (NS3 f.l. binding to coated 6His-NS5_270–900) (Dengue virus type 2, UniProt P14340); test: ELISA-based NS3-NS5 interaction assay; design: species or system DENV-2; details: for IC50: read-out: In vitro activity IC50
Protocol: Nunc Maxisorp microplates (Thermo Fisher Scientific) were coated with 400 ng/well of 6His-NS5_270–900, or GST protein as a control, in PBS for 3 h at 37 °C and then blocked with 5% (wt/v) bovine serum albumin (BSA, Merck Life Science) in PBS overnight at 4 °C. Blocked wells were incubated at room temperature (RT) for 2 h with increasing amounts of NS3 f.l. or GST–NS3_172–618. 6His-NS5_270–900-coated plates were also incubated with increasing concentration of GST, as a control. After washing with PBS containing 0.3% Tween 20 (Fisher Scientific, Waltham, MA, United States), the NS3-NS5 interaction was detected by incubating the plates with the anti-NS3 monoclonal antibody (GT2811 clone, Genetex, Irvine, CA, United States) diluted 1:6,000 in PBS + 2% (v/v) FBS (Thermo Fisher Scientific) for 1 h at RT. The unbound primary antibody was removed by further washes with PBS + 0.3% Tween 20 and the secondary goat anti-mouse HRP-conjugated antibody (GenScript Biotech) at a dilution of 1:8,000 in PBS + 2% FBS was then added. After incubation for 1 h at RT and following washes, the colorimetric substrate 3,3′,5,5′-tetramethylbenzidine (TMB, SeraCare Life Sciences, Milford, MA, United States) was added to each well and absorbance was read at 450 nm by an ELISA plate reader (Tecan Infinite 200 PRO, Mannedorf, Switzerland).
To test the inhibitory effect of compounds on NS3-NS5 interaction, 6His-NS5_270–900-coated wells were incubated with a fixed amount of NS3 f.l. (200 ng) along with increasing concentrations of test compounds or DMSO as a control. To exclude non-specific inhibition of compounds due to colloidal aggregation, the inhibitory activities of compounds were tested in the presence or the absence of 0.002% Triton X-100 (Fisher Scientific), a condition which reverses and prevents the colloidal formation of organic molecules ([McGovern et al., 2003]). All the compound concentrations were tested at least in duplicate.

[2] = molecular target: NS5-RdRp (NHS-NS5_270–900) (Dengue virus type 2, UniProt P14340); test: Microscale thermophoresis (MST) binding to labeled NS5-RdRp; design: species or system DENV-2; details: medium MST power, 40% LED power
Text: (§1) To obtain the purified helicase portion of NS3 (6His-NS3_177–618) and the main protease of SARS-CoV-2 (6His-M^pro) used for the MST analysis, we followed previously described protocols ([Celegato et al., 2023]; [Mercorelli et al., 2022]). The 6His–NS5 RdRp270–900 protein was expressed and purified as described above. For MST studies, 6His-NS5_270–900, 6His-NS3_177–618, and 6His-M^pro were fluorescently labeled using NanoTemper Protein labeling kit RED-NHS 2nd generation (MO-L011, NanoTemper Technologies GmbH, Munich, Germany). Protein and dye concentrations were determined by absorption spectroscopy using NanoDrop™ One spectrophotometer (ThermoFisher Scientific), considering, at 280 nm, ε = 171,350 M^–1cm^1 for recombinant NS5, ε = 66,140 M^–1cm^1 for NS3, ε = 32,890 M^–1cm^1 for M^pro, respectively. The ε = 195,000 M^1cm^1 at 650 nm was considered for the RED-NHS fluorophore, with a correction factor of 0.04. The degree of labeling (DOL) was calculated according to the manufacturer’s instructions, yielding a value of 0.63 for NHS-NS5, 0.98 for NHS-NS3, and 0.60 for NHS-M^pro, respectively. […] In all experiments, signal quality was monitored by the Monolith device to detect possible ligand auto-fluorescence, aggregation, or target protein adsorption to capillaries. Experiments were performed in triplicates and analyzed with the MO. […]

SARS-CoV-2 M^pro = SARS-CoV-2 M^pro (Severe acute respiratory syndrome coronavirus 2, UniProt P0DTD1); details: MST binding check, up to 125 μM compound concentration
Vero cells = test: MTT cytotoxicity assay; details: read-out: Cytotoxicity CC50; best analogues of hit 3, in-house synthesized hit 3 as control; MTT in Vero cells at 72 h
MTT cytotoxicity assay = details: African green monkey, Vero cells
[3] = molecular target: NS3-hel (NHS-NS3_177–618) (Dengue virus type 2, UniProt P14340); test: Microscale thermophoresis (MST) binding to labeled NS3-hel; design: species or system DENV-2; details: same test concentrations (serial dilutions from 250 μM), 60% LED power
Text: as §1

DENV-3 (H-87 strain) = test: Viral RNA reduction assay (RT-qPCR) in Vero cells; assay type: cell-based; details: DENV-3, Vero cells, RT-qPCR at 72 h p.i.
Protocol: (§2) For viral RNA reduction assays with DENV serotypes 1 to 4, Vero cells were seeded at a density of 1 × 10^5 cells per well in 24-well plates. The next day, cells were infected at 37 °C with the different viruses in serum-free DMEM at the multiplicity of infection (MOI) of 0.001 and plates were rocked every 15 min. At the end of incubation, the viral inoculum was removed, and medium with 2% FBS containing various concentrations of test compounds was added. Viral RNA was isolated from the culture supernatant at 72 h p.i., using the PureLink Viral RNA/DNA Mini kit (Invitrogen, Waltham, MA, United States), according to the manufacturer’s instructions. Viral RNA was quantified using the One-Step RT-PCR kit Dengue Virus subtypes 1, 2, 3 and 4 PCRmax (Cole Parmer Instrument, Saint Neots, United Kingdom), according to the manufacturer’s instructions, on a 7,000 Real-time PCR platform (Applied Biosystems, Waltham, MA, United States).

DENV-2 (NGC strain) = test: Viral RNA reduction assay (RT-qPCR) in Vero cells; assay type: cell-based; details: DENV-2, Vero cells, RT-qPCR at 72 h p.i.
Protocol: as §2

DENV-1 (TH-Sman strain) = test: Viral RNA reduction assay (RT-qPCR) in Vero cells; assay type: cell-based; details: DENV-1, Vero cells, RT-qPCR at 72 h p.i.
Protocol: as §2

DENV-4 (H-241 strain) = test: Viral RNA reduction assay (RT-qPCR) in Vero cells; assay type: cell-based; details: DENV-4, Vero cells, RT-qPCR at 72 h p.i.
Protocol: as §2

Cc1ccc(NC(=S)NNC(=O)c2ccccc2O)cc1 [Hit 3]
EC50 (DENV-2 NGC strain; Dengue virus, DENV2, Vero, best analogues of hit 3, in-house synthesized hit 3 as control, NGC strain): 1800 ± 600 nM
EC50 (DENV-2 NGC strain; Dengue virus, DENV2, Vero, selected hits, 50% inhibition of viral plaque formation, DENV-2): 1930 nM
SI (selectivity index) (DENV-2 NGC strain; best analogues of hit 3): >130
EC50 (DENV-2 NGC strain; selected hits, 50% inhibition of viral plaque formation, DENV-2): 1900 ± 300 nM
SI (selectivity index) (DENV-2 NGC strain; selected hits): >130
IC50 ([1]; analogues of hit 3, in-house synthesized hit 3 as control, 50% inhibition of NS3-NS5 binding in ELISA): 19.4 ± 7.8 µM
inhibition at 100 µM ([1]; fixed concentration of 100 μM, compared with DMSO control): ≥ 50%
IC50 ([1]; selected hits, concentration that decreased the NS3-NS5 binding by 50% in ELISA): 15.6 ± 4.5 µM
Kd [2]: 28.8 ± 4.5 µM
binding to SARS-CoV-2 M^pro (SARS-CoV-2 M^pro): No binding was detected
CC50 (Vero cells): > 250 µM
CC50 at 72 h (MTT cytotoxicity assay): > 250 µM
binding to NS3-hel [3]: not able to detect the binding; also recorded: no binding was observed
viral RNA synthesis (DENV-3 (H-87 strain)): concentration-dependent reduction in viral RNA synthesis
viral RNA synthesis (DENV-2 (NGC strain)): concentration-dependent reduction in viral RNA synthesis
viral RNA synthesis (DENV-1 (TH-Sman strain)): concentration-dependent reduction in viral RNA synthesis
viral RNA synthesis (DENV-4 (H-241 strain)): concentration-dependent reduction in viral RNA synthesis
